In ChEMBL document CHEMBL5728630, “Aryl, heteroaryl, and heterocyclic pharmaceutical compounds for treatment of medical disorders” (2021):

molecular target: Complement factor D (Homo sapiens, UniProt P00746); experiment: Factor D Assay: Human Factor D (purified from human serum, Complement Technology, Inc.) at 80 nM final concentration is incubated with test compound at various concentrations for 5 min at room temperature in 50 mM Tris, 1M NaCl, pH 7.5. A synthetic substrate Z-L-Lys-SBz and DTNB (Ellman's reagent) are added to final concentrations of 100 μM each. Absorbance at 405 nm (A405) is recorded at 30 second intervals for 30 min using a microplate spectrophotometer. IC50 values are calculated by nonlinear regression of complement Factor D reaction rates as a function of test compound concentration.
Sequence (P00746 whole entry): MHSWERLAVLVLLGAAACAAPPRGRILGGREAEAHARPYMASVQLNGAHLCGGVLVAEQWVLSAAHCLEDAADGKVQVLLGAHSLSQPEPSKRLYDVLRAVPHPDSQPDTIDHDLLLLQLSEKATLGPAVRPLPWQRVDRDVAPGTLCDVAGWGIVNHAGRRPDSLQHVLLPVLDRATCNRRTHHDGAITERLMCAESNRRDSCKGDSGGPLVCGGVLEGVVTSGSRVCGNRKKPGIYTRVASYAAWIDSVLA

Compound | IC50 [nM]
CC(=O)c1nn(CC(=O)N2[C@H](C(=O)Nc3nc(Br)ccc3C)C[C@@]3(CCF)C[C@@H]23)c2cnc(-c3cnc(C)nc3)cc12 | < 1000
CC(=O)c1nn(CC(=O)N2[C@H](C(=O)Nc3nc(Br)ccc3C)C[C@@]3(Cn4cc(C5CC5)nn4)C[C@@H]23)c2cnc(-c3cnc(C)nc3)cc12 | < 1000
CC(=O)c1nn(CC(=O)N2[C@H](C(=O)NCC3CC3)C[C@@]3(C)C[C@@H]23)c2c(C)cc(-c3cnc(C)nc3)cc12 | < 1000
C=CCCS(=O)(=O)NC[C@@]12C[C@@H](C(=O)Nc3nc(Br)ccc3C=C)N(C(=O)Cn3nc(C(C)=O)c4cc(-c5cnc(C)nc5)ccc43)[C@@H]1C2 | < 1000
CC(=O)c1nn(CC(=O)N2[C@H](C(=O)Nc3nc(Br)ccc3C)C[C@@]3(CC(O)CO)C[C@@H]23)c2cnc(-c3cnc(C)nc3)cc12 (stereo partly specified) | < 1000
CC(=O)c1nn(CC(=O)N2[C@H](C(=O)Nc3nc(Br)ccc3C)C[C@@]3(CN4CC(O)C4)C[C@@H]23)c2c(C)cc(-c3cnc(C)nc3)cc12 | < 1000
CC(=O)c1nn(CC(=O)N2[C@H](C(=O)Nc3nc(Br)ccc3C)C[C@@]3(C4COC(C)(C)O4)C[C@@H]23)c2cnc(-c3cnc(C)nc3)cc12 (stereo partly specified) | < 1000
Cc1ncc(-c2ccc3c(c2)c(C(=O)NC(C)(C)C2CC2)nn3CC(=O)N2[C@H](C(=O)Nc3nc(Br)ccc3C)C[C@@]3(C)C[C@@H]23)cn1 | > 10000
Cc1ncc(-c2cc(C)c3c(c2)c(C(=O)N2CC4(CCC4)C2)nn3CC(=O)N2[C@H](C(=O)Nc3nc(Br)ccc3C)C[C@@]3(C)C[C@@H]23)cn1 | > 10000
C=CCNC(=O)c1nn(CC(=O)N2[C@H](C(=O)Nc3nc(Br)ccc3C)C[C@@]3(C)C[C@@H]23)c2ccc(-c3cnc(C)nc3)cc12 | < 1000
CC(=O)c1nn(CC(=O)N2[C@H](C(=O)Nc3nc(Br)ccc3C)C[C@@]3(C)C[C@@H]23)c2c(C)cc(-c3cnc(O)nc3)cc12 | < 1000
CC(=O)c1nn(CC(=O)N2[C@H](C(=O)NCCN3CCCCC3)C[C@@]3(C)C[C@@H]23)c2c(C)cc(-c3cnc(C)nc3)cc12 | > 10000
CC(=O)c1nn(CC(=O)N2[C@H](C(=O)Nc3nc(C(F)(F)F)ccc3C)C[C@@]3(C)C[C@@H]23)c2cnc(-c3cnc(C)nc3)cc12 | < 1000
C=Cc1nn(CC(=O)N2[C@H](C(=O)Nc3nc(Br)ccc3C)C[C@@]3(C)C[C@@H]23)c2cnc(-c3cnc(C)nc3)cc12 | < 1000
CC(=O)c1nn(CC(=O)N2[C@H](C(=O)Nc3nc(Br)ccc3C)C[C@@]3(CN4CC(O)C4)C[C@@H]23)c2cnc(-c3cnc(C)nc3)cc12 | < 1000
C#CC(C)(C)NC(=O)c1nn(CC(=O)N2[C@H](C(=O)Nc3nc(Br)ccc3C)C[C@@]3(C)C[C@@H]23)c2ccc(-c3cnc(C)nc3)cc12 | > 10000
CC(=O)c1nn(CC(=O)N2[C@H](C(=O)Nc3cccc(Br)n3)C[C@@]3(C)C[C@@H]23)c2c(C)cc(-c3cnc(C)nc3)cc12 | < 1000
CCCCCNC(=O)[C@@H]1C[C@@]2(C)C[C@H]2N1C(=O)Cn1nc(C(C)=O)c2cc(-c3cnc(C)nc3)cc(C)c21 | < 1000
CC(=O)c1nn(CC(=O)N2[C@H](C(=O)NCC(C)C)C[C@@]3(C)C[C@@H]23)c2c(C)cc(-c3cnc(C)nc3)cc12 | < 1000
CC(=O)c1nn(CC(=O)N2[C@H](C(=O)N[C@H](C)[C@H]3CC3(Cl)Cl)C[C@@]3(C)C[C@@H]23)c2c(C)cc(-c3cnc(C)nc3)cc12 | < 1000
CC(=O)c1nn(CC(=O)N2[C@H](C(=O)Nc3nc(Br)ccc3C)C[C@@]3(CNC(=O)C4CCCC4(F)F)C[C@@H]23)c2c(C)cc(-c3cnc(C)nc3)cc12 (stereo partly specified) | < 1000

Compound | IC50 [nM]
CC(=O)c1nn(CC(=O)N2[C@H](C(=O)NCCCc3ccccc3)C[C@@]3(C)C[C@@H]23)c2c(C)cc(-c3cnc(C)nc3)cc12 | < 1000
CNC(=O)c1nn(CC(=O)N2[C@H](C(=O)Nc3nc(Br)ccc3C)C[C@@]3(C)C[C@@H]23)c2ccc(-c3cnc(C)nc3)cc12 | < 1000
CC(=O)c1nn(CC(=O)N2[C@H](C(=O)Nc3nc(Br)ccc3C)C[C@@]3(C)C[C@@H]23)c2ccc(-c3cnc(CN4CCCC(F)(F)C4)nc3)cc12 | < 1000
CC(=O)c1nn(CC(=O)N2[C@H](C(=O)Nc3nc(Br)ccc3C)C[C@@]3(CN(C)C)C[C@@H]23)c2cnc(-c3cnc(C)nc3)cc12 | < 1000
CC(=O)c1nn(CC(=O)N2[C@H](C(=O)Nc3cccc(Br)n3)C[C@@]3(C)C[C@@H]23)c2ccc(-c3cnc(OC4CS(=O)(=O)C4)nc3)cc12 | < 1000
CC(=O)c1nn(CC(=O)N2[C@H](C(=O)Nc3nc(C(F)(F)F)ccc3C)C[C@@]3(C)C[C@@H]23)c2c(C)nc(-c3cnc(C)nc3)cc12 | < 1000
CC[C@@]12C[C@@H](C(=O)Nc3nc(Br)ccc3C)N(C(=O)Cn3nc(C(C)=O)c4cc(-c5cnc(C)nc5)ncc43)[C@@H]1C2 | < 1000
COc1ccccc1CNC(=O)[C@@H]1C[C@@]2(C)C[C@H]2N1C(=O)Cn1nc(C(C)=O)c2cc(-c3cnc(C)nc3)cc(C)c21 | < 1000
CCC[C@@]12C[C@@H](C(=O)Nc3nc(Br)ccc3C)N(C(=O)Cn3nc(C(C)=O)c4cc(-c5cnc(C)nc5)ncc43)[C@@H]1C2 | < 1000
CC(=O)c1nn(CC(=O)N2[C@@H](C(=O)Nc3nc(Br)ccc3C)C[C@]3(C)C[C@H]23)c2ccc(-c3cnc(C)nc3)cc12 | > 10000
CC(=O)C[C@@]12C[C@@H](C(=O)Nc3nc(Br)ccc3C)N(C(=O)Cn3nc(C(C)=O)c4cc(-c5cnc(C)nc5)ncc43)[C@@H]1C2 | < 1000
CC(=O)c1nn(CC(=O)N2[C@H](C(=O)NCc3cccc(F)c3)C[C@@]3(C)C[C@@H]23)c2c(C)cc(-c3cnc(C)nc3)cc12 | < 1000
CC(=O)c1nn(CC(=O)N2[C@H](C(=O)Nc3nc(Br)ccc3C)C[C@@]3(CNCc4ccccc4F)C[C@@H]23)c2c(C)cc(-c3cnc(C)nc3)cc12 | < 1000
Cc1ncc(-c2cc3c(C(C)O)nn(CC(=O)N4[C@H](C(=O)Nc5nc(Br)c(F)cc5C)C[C@@]5(C)C[C@@H]45)c3c(C)n2)cn1 (stereo partly specified) | < 1000
CC(=O)c1nn(CC(=O)N2[C@H](C(=O)Nc3nc(Br)ccc3C)C[C@@]3(CF)C[C@@H]23)c2c(C)cc(-c3cnc(C)nc3)cc12 | < 1000
CC(=O)c1nn(CC(=O)N2[C@H](C(=O)Nc3nc(Br)ccc3C)C[C@@]3(C)C[C@@H]23)c2c(C)cc(-c3cnc(C4(O)COC4)nc3)cc12 | < 1000
CC(=O)c1nn(CC(=O)N2[C@H](C(=O)Nc3nc(Br)ccc3C)C[C@@]3(C)C[C@@H]23)c2c(C(F)(F)F)nc(-c3cnc(C)nc3)cc12 | < 1000
C#CCNC(=O)c1nn(CC(=O)N2[C@H](C(=O)Nc3nc(Br)ccc3C)C[C@@]3(C)C[C@@H]23)c2ccc(-c3cnc(C)nc3)cc12 | < 1000
CC(=O)c1nn(CC(=O)N2[C@H](C(=O)NCc3ccc(C)cc3)C[C@@]3(C)C[C@@H]23)c2c(C)cc(-c3cnc(C)nc3)cc12 | < 1000
CC(=O)c1nn(CC(=O)N2[C@H](C(=O)Nc3nc(Br)ccc3C)C[C@@]3(CN4CCC4)C[C@@H]23)c2c(C)nc(-c3cnc(C)nc3)cc12 | < 1000
CCNC(=O)[C@@H]1C[C@@]2(C)C[C@H]2N1C(=O)Cn1nc(C(C)=O)c2cc(-c3cnc(C)nc3)cc(C)c21 | < 1000

Compound | IC50 [nM]
CCCNC(=O)[C@@H]1C[C@@]2(C)C[C@H]2N1C(=O)Cn1nc(C(C)=O)c2cc(-c3cnc(C)nc3)ccc21 | < 1000
CC(=O)c1nn(CC(=O)N2[C@H](C(=O)NCc3ncccn3)C[C@@]3(C)C[C@@H]23)c2c(C)cc(-c3cnc(C)nc3)cc12 | < 1000
CC(=O)c1nn(CC(=O)N2[C@H](C(=O)NCCc3ccccc3)C[C@@]3(C)C[C@@H]23)c2c(C)cc(-c3cnc(C)nc3)cc12 | < 1000
CC(=O)c1nn(CC(=O)N2[C@H](C(=O)Nc3nc(Br)ccc3C)C[C@@]3(CNCc4ccccc4)C[C@@H]23)c2c(C)cc(-c3cnc(C)nc3)cc12 | < 1000
COCc1ncc(-c2cc3c(C(C)=O)nn(CC(=O)N4[C@H](C(=O)Nc5nc(Br)ccc5C)C[C@@]5(C)C[C@@H]45)c3cn2)cn1 | < 1000
CC(=O)c1nn(CC(=O)N2[C@H](C(=O)Nc3nc(Br)ccc3CN3CCC(S(C)(=O)=O)CC3)C[C@@]3(C)C[C@@H]23)c2c(C)cc(-c3cnc(C)nc3)cc12 | < 1000
Cc1ncc(-c2cc3c(C(N)=O)nn(CC(=O)N4[C@H](C(=O)Nc5nc(Br)c(F)cc5C)C[C@@]5(C)C[C@@H]45)c3cn2)cn1 | < 1000
CC(=O)c1nn(CC(=O)N2[C@H](C(=O)Nc3cncc(Br)n3)C[C@@]3(C)C[C@@H]23)c2cnc(-c3cnc(C)nc3)cc12 | < 1000
CC(=O)c1nn(CC(=O)N2[C@H](C(=O)Nc3cc(C)cc(Br)n3)C[C@@]3(C)C[C@@H]23)c2c(C)nc(-c3cnc(C)nc3)cc12 | < 1000
CC(=O)c1nn(CC(=O)N2[C@H](C(=O)Nc3nc(Br)ccc3C(O)CO)C[C@@]3(C)C[C@@H]23)c2cnc(-c3cnc(C)nc3)cc12 (stereo partly specified) | < 1000
Cc1ncc(-c2ccc3c(c2)c(C(=O)NC(C)C2CC2)nn3CC(=O)N2[C@H](C(=O)Nc3nc(Br)ccc3C)C[C@@]3(C)C[C@@H]23)cn1 (stereo partly specified) | < 1000
CC(=O)c1nn(CC(=O)N2[C@H]3C[C@@]3(C)C[C@H]2C(=O)Nc2nc(Br)ccc2C)c2ccc(-c3cnc(C)nc3)cc12 | < 1000
CC(=O)c1nn(CC(=O)N2[C@H](C(=O)Nc3nc(Br)ccc3C)C[C@@]3(C)C[C@@H]23)c2c(C3CC3)nc(-c3cnc(C)nc3)cc12 | < 1000
COc1cccc(CNC(=O)[C@@H]2C[C@@]3(C)C[C@H]3N2C(=O)Cn2nc(C(C)=O)c3cc(-c4cnc(C)nc4)cc(C)c32)c1 | < 1000
COc1ncc(-c2cc3c(C(C)=O)nn(CC(=O)N4[C@H](C(=O)Nc5nc(Br)ccc5C)C[C@@]5(C)C[C@@H]45)c3c(C)n2)cn1 | < 1000
COCc1ccc(Br)nc1NC(=O)[C@@H]1C[C@@]2(CN(C)C)C[C@H]2N1C(=O)Cn1nc(C(C)=O)c2cc(-c3cnc(C)nc3)ccc21 | < 1000
CC(=O)c1nn(CC(=O)N2[C@H](C(=O)Nc3nc(Br)ccc3C)C[C@@]3(CNC4=NCCO4)C[C@@H]23)c2cnc(-c3cnc(C)nc3)cc12 | < 1000
CC(=O)c1nn(CC(=O)N2[C@H](C(=O)Nc3nc(Br)ccc3C)C[C@@]3(CNC(=O)C4CCCC4(F)F)C[C@@H]23)c2ccc(-c3cnc(C)nc3)cc12 (stereo partly specified) | < 1000
CC(=O)c1nn(CC(=O)N2[C@H](C(=O)N[C@@H](C)C(F)=C(C)C)C[C@@]3(C)C[C@@H]23)c2cnc(-c3cnc(C)nc3)cc12 | < 1000
